PubChem BioAssay AID330 (DTP/NCI, 2004)
Where “and” joins values, the source holds several entries; their conditions need not be identical. Equal entries are not always repeated. Inconclusive results and toxic doses are left out. The calls were made as follows: active = survival T/C of 150% or more; inactive = T/C below 125% in these data. Peptide text beside a SMILES is read from it.

Tested on: P388 leukemia ip, CD2F1 mice, survival T/C
Assay: NCI In Vivo Anticancer Drug Screen. Data for tumor model P388 Leukemia (intraperitoneal) in CD2F1 (CDF1) mice
Conditions: endpoint: median survival time, higher = longer survival
In short: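 Mice carrying the transplanted tumor received test compound or vehicle. Survival was recorded in each group, and the value is the treated-group measurement divided by that of the vehicle-treated control group.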

[1] = dose: 100.0 mg/kg/injection, schedule: Q01DX009 (ip), vehicle: saline with Tween-80
[2] = dose: 200.0 mg/kg/injection, schedule: Q01DX009 (ip), vehicle: saline with Tween-80
[3] = dose: 50.0 mg/kg/injection, schedule: Q01DX005 (ip), vehicle: Klucel (hydroxypropylcellulose) (HPC)
[4] = dose: 100.0 mg/kg/injection, schedule: Q01DX005 (ip), vehicle: Klucel (hydroxypropylcellulose) (HPC)
[5] = dose: 200.0 mg/kg/injection, schedule: Q01DX005 (ip), vehicle: Klucel (hydroxypropylcellulose) (HPC)
[6] = dose: 25.0 mg/kg/injection, schedule: Q01DX009 (ip), vehicle: Klucel (hydroxypropylcellulose) (HPC)
[7] = dose: 50.0 mg/kg/injection, schedule: Q01DX009 (ip), vehicle: Klucel (hydroxypropylcellulose) (HPC)
[8] = dose: 100.0 mg/kg/injection, schedule: Q01DX009 (ip), vehicle: Klucel (hydroxypropylcellulose) (HPC)
[9] = dose: 12.5 mg/kg/injection, schedule: Q01DX009 (ip), vehicle: saline with Tween-80
[10] = dose: 25.0 mg/kg/injection, schedule: Q01DX009 (ip), vehicle: saline with Tween-80
[11] = dose: 50.0 mg/kg/injection, schedule: Q01DX009 (ip), vehicle: saline with Tween-80
[12] = dose: 60.0 mg/kg/injection, schedule: Q01DX005 (ip), vehicle: saline with Tween-80
[13] = dose: 120.0 mg/kg/injection, schedule: Q01DX005 (ip), vehicle: saline with Tween-80
[14] = dose: 240.0 mg/kg/injection, schedule: Q01DX005 (ip), vehicle: saline with Tween-80
[15] = dose: 100.0 mg/kg/injection, schedule: Q01DX009 (ip), vehicle: saline
[16] = dose: 200.0 mg/kg/injection, schedule: Q01DX009 (ip), vehicle: saline
[17] = dose: 6.25 mg/kg/injection, schedule: Q01DX005 (ip), vehicle: saline with Tween-80
[18] = dose: 60.0 mg/kg/injection, schedule: Q01DX005 (ip), vehicle: Klucel (hydroxypropylcellulose) (HPC)
[19] = dose: 120.0 mg/kg/injection, schedule: Q01DX005 (ip), vehicle: Klucel (hydroxypropylcellulose) (HPC)
[20] = dose: 240.0 mg/kg/injection, schedule: Q01DX005 (ip), vehicle: Klucel (hydroxypropylcellulose) (HPC)

Measured: T/C

CCOP(=O)(OCC)c1nc(Cl)nc(Cl)c1SC(F)(F)F
inactive: dose: 3.75 mg/kg/injection, schedule: Q01DX005 (ip), vehicle: saline with Tween-80 113 % of control | dose: 7.5 mg/kg/injection, schedule: Q01DX005 (ip), vehicle: saline with Tween-80 104 % of control | dose: 15.0 mg/kg/injection, schedule: Q01DX005 (ip), vehicle: saline with Tween-80 100 % of control

O=C(O)CC(CSCP(=O)(O)O)C(=O)O (configuration not stated)
inactive: dose: 50.0 mg/kg/injection, schedule: Q01DX005 (ip), vehicle: suspension in saline 102 % of control | dose: 100.0 mg/kg/injection, schedule: Q01DX005 (ip), vehicle: suspension in saline 91 % of control | dose: 200.0 mg/kg/injection, schedule: Q01DX005 (ip), vehicle: suspension in saline 89 % of control

CN(NC(=O)CCl)c1ccc([N+](=O)[O-])cc1[N+](=O)[O-]
inactive: [1] 118 % of control | [2] 108 % of control | dose: 400.0 mg/kg/injection, schedule: Q01DX009 (ip), vehicle: saline with Tween-80 94 % of control

NC(N)=NCCCC(N)C(=O)NC(CCCN=C(N)N)C(=O)O (stereo not drawn) (H-Arg-Arg-OH; configuration not given here)
inactive: [3] 103 % of control | [4] 100 % of control | [5] 100 % of control

O=[N+]([O-])c1cc[n+]([O-])c(Cl)c1
inactive: [6] 91 % of control | [7] 96 % of control | [8] 94 % of control | dose: 200.0 mg/kg/injection, schedule: Q01DX009 (ip), vehicle: Klucel (hydroxypropylcellulose) (HPC) 101 % of control

COc1ccc2c(c1)C1CCN(C)CC1OC2=O (configuration not stated)
inactive: [9] 92 % of control | [10] 98 % of control | [11] 100 % of control and 104 % of control

CSC(=N\N=C\c1cccs1)/N=C/N(C)C
inactive: [12] 92 % of control | [13] 99 % of control | [14] 97 % of control

CCOC(Cn1nc(SC)nc1N)OCC
inactive: dose: 100.0 mg/kg/injection, schedule: Q04DX002 (ip), vehicle: water 108 % of control | dose: 200.0 mg/kg/injection, schedule: Q04DX002 (ip), vehicle: water 104 % of control | dose: 400.0 mg/kg/injection, schedule: Q04DX002 (ip), vehicle: water 109 % of control

CN1CCC(OC(N)=O)CC1
inactive: [15] 100 % of control | [16] 100 % of control | dose: 400.0 mg/kg/injection, schedule: Q01DX009 (ip), vehicle: saline 104 % of control

C=CCOc1ccc2ccc(=O)oc2c1
inactive: dose: 50.0 mg/kg/injection, schedule: Q04DX003 (ip), vehicle: saline with Tween-80 109 % of control | dose: 100.0 mg/kg/injection, schedule: Q04DX003 (ip), vehicle: saline with Tween-80 104 % of control | dose: 200.0 mg/kg/injection, schedule: Q04DX003 (ip), vehicle: saline with Tween-80 101 % of control

C=CCN(CCNc1cccc2ccccc12)C1CCCCC1
inactive: [3] 92 % of control | [4] 100 % of control | [5] 104 % of control

CSc1nccn2cnnc12
inactive: dose: 100.0 mg/kg/injection, schedule: Q01DX001 (ip), vehicle: Klucel (hydroxypropylcellulose) (HPC) 101 % of control | dose: 200.0 mg/kg/injection, schedule: Q01DX001 (ip), vehicle: Klucel (hydroxypropylcellulose) (HPC) 104 % of control | dose: 400.0 mg/kg/injection, schedule: Q01DX001 (ip), vehicle: Klucel (hydroxypropylcellulose) (HPC) 101 % of control

COc1cc(C(=O)Nc2ccc(NC3=NCCN3)cc2)cc(C(=O)Nc2ccc(NC3=NCCN3)cc2)c1
inactive: [17] 102 % of control | dose: 12.5 mg/kg/injection, schedule: Q01DX005 (ip), vehicle: saline with Tween-80 106 % of control | dose: 25.0 mg/kg/injection, schedule: Q01DX005 (ip), vehicle: saline with Tween-80 115 % of control

OC1c2cc(Cl)cc(Cl)c2OC2(N3CCCC3)CCCCC12 (configuration not stated)
inactive: [11] 100 % of control | [1] 96 % of control | [2] 102 % of control

C[N+]1(C)CCC(=O)CC1
inactive: [10] 109 % of control | [11] 100 % of control | [1] 104 % of control

CC12OC(c3ccccc3)C(C)(OC1c1ccccc1)O2 (configuration not stated)
inactive: [18] 102 % of control | [19] 100 % of control | [20] 98 % of control

O=C(O)CCOCCC(=O)O
inactive: dose: 50.0 mg/kg/injection, schedule: Q01DX005 (ip), vehicle: saline 97 % of control | dose: 100.0 mg/kg/injection, schedule: Q01DX005 (ip), vehicle: saline 97 % of control | dose: 200.0 mg/kg/injection, schedule: Q01DX005 (ip), vehicle: saline 97 % of control

CC(C)(C)OOC(=O)Cc1ccccc1
inactive: [12] 104 % of control | [13] 122 % of control | [14] 122 % of control

ON=C1C2C=CC=CC1C=C2
inactive: dose: 6.25 mg/kg/injection, schedule: Q01DX009 (ip), vehicle: saline 90 % of control | dose: 12.5 mg/kg/injection, schedule: Q01DX009 (ip), vehicle: saline 96 % of control | dose: 25.0 mg/kg/injection, schedule: Q01DX009 (ip), vehicle: saline 90 % of control

C=CCN1Cc2ccccc2-c2ccccc2C1
inactive: dose: 50.0 mg/kg/injection, schedule: Q01DX009 (ip), vehicle: saline 94 % of control | [15] 106 % of control | [16] 108 % of control

Cc1cc(OCCCCCCC[N+](C)(C)Cc2ccc([N+](=O)[O-])o2)c(C(C)C)cc1Cl
inactive: dose: 12.5 mg/kg/injection, schedule: Q04DX003 (ip), vehicle: saline 99 % of control | dose: 25.0 mg/kg/injection, schedule: Q04DX003 (ip), vehicle: saline 92 % of control

COc1c(O)cc2c(c1O)C1OC(CO)C(O)C(O)C1OC2=O (configuration not stated)
inactive: dose: 12.75 mg/kg/injection, schedule: Q01DX005 (ip), vehicle: Klucel (hydroxypropylcellulose) (HPC) 100 % of control | dose: 25.5 mg/kg/injection, schedule: Q01DX005 (ip), vehicle: Klucel (hydroxypropylcellulose) (HPC) 98 % of control | dose: 51.0 mg/kg/injection, schedule: Q01DX005 (ip), vehicle: Klucel (hydroxypropylcellulose) (HPC) 97 % of control | dose: 102.0 mg/kg/injection, schedule: Q01DX005 (ip), vehicle: Klucel (hydroxypropylcellulose) (HPC) 100 % of control

Nc1c(C(=O)O)[nH]c(=O)[nH]c1=O
inactive: [9] 119 % of control | [10] 119 % of control | [11] 120 % of control | [1] 118 % of control

CC(C)=CCCC(=O)Cc1nc2nnc(N)n2nc1CC(=O)CCC=C(C)C
inactive: dose: 60.0 mg/kg/injection, schedule: Q01DX005 (ip), vehicle: saline 100 % of control | dose: 120.0 mg/kg/injection, schedule: Q01DX005 (ip), vehicle: saline 98 % of control | dose: 240.0 mg/kg/injection, schedule: Q01DX005 (ip), vehicle: saline 104 % of control

Cc1ccc2c(c1)sc1nnc(S(C)(=O)=O)n12
inactive: dose: 12.5 mg/kg/injection, schedule: Q01DX009 (ip), vehicle: Klucel (hydroxypropylcellulose) (HPC) 118 % of control | [6] 110 % of control | [7] 102 % of control and 118 % of control | [8] 111 % of control

CNC(=O)CCC(NS(=O)(=O)c1ccccc1)C(=O)O (configuration not stated)
inactive: [3] 107 % of control | [4] 96 % of control | [5] 95 % of control

COc1ccc2c(C)cc(N/N=C(\c3ccccc3)c3ccccn3)nc2c1
inactive: dose: 1.56 mg/kg/injection, schedule: Q01DX005 (ip), vehicle: saline with Tween-80 107 % of control | dose: 3.12 mg/kg/injection, schedule: Q01DX005 (ip), vehicle: saline with Tween-80 102 % of control | [17] 98 % of control and 94 % of control | dose: 100.0 mg/kg/injection, schedule: Q01DX005 (ip), vehicle: saline with Tween-80 89 % of control | dose: 200.0 mg/kg/injection, schedule: Q01DX005 (ip), vehicle: saline with Tween-80 94 % of control

CCOC(=O)C1Cc2c([nH]c(=O)[nH]c2=O)OC1c1ccc(OC)cc1 (configuration not stated)
inactive: [3] 97 % of control | [4] 100 % of control | [5] 97 % of control

COC1(OC)C(c2ccc([N+](=O)[O-])cc2)C([N+](=O)[O-])C1(OC)OC (configuration not stated)
inactive: [18] 90 % of control | [19] 93 % of control | [20] 89 % of control
